# Reference: US10045962B2 (priority 2014, dated 2018)
# Structures can show the parent of a compound that is named as a salt.
# Columns and labels:
# [1] = test system: A375 (amelanotic melanoma); conditions: 10 μM, 72 hours
# Method: (§1) These cells were seeded at an amount of 2×10^6 cells, and then added with the culture medium for cultivating the cells to a volume of 10 mL, followed by cultivation for 2 to 3 days. After counting the cell number, these cells were respectively plated in a 96-well plate, in which each well has a fixed cell number of 3000 and a volume of 100 μL.
# (§2) After removing the culture medium in the 96-well plate, each well was added with 100 μL of 10 μM commercial drug and then placed for 72 hours. Thereafter, each well was further added with 100 μL of a diluted WST-1 solution (the dilution ratio for the culture medium: WST-1 stock solution (wt/wt) is 9:1).
# [2] = test system: U2OS; conditions: 10 μM, 72 hours
# Method: as §1, §2
# [3] = test system: HeLa (cervix adenocarcinoma); conditions: 10 μM, 72 hours
# Method: as §1, §2
# [4] = test system: C-33A (cervical carcinoma); conditions: 10 μM, 72 hours
# Method: as §1, §2
# [5] = test system: Liver cancer; conditions: summary over cell lines, 10 μM, 72 hours
# Method: as §1, §2
# [6] = test system: AGS (gastric adenocarcinoma); conditions: 10 μM, 72 hours
# Method: as §1, §2
# (§3) Each cancer cell inhibitory experiment was repeated for 4 times, followed by calculation of the mean values thereof, which were shown in the following tables.
# [7] = test system: Pancreatic cancer; conditions: summary over cell lines, 10 μM, 72 hours
# Method: as §1, §2
# [8] = test system: BCC (basal cell carcinoma); conditions: 10 μM, 72 hours
# Method: as §1, §2
# [9] = test system: A549 (lung adenocarcinoma); conditions: 10 μM, 72 hours
# Method: as §1, §2
# [10] = test system: BxPC-3; conditions: 10 μM, 72 hours
# Method: as §1, §2, §3
# [11] = test system: MKN-45 (gastric adenocarcinoma); conditions: 10 μM, 72 hours
# Method: as §1, §2, §3
# [12] = test system: Ovarian cancer; conditions: summary over cell lines, 10 μM, 72 hours
# Method: as §1, §2
# [13] = test system: TOV-21G; conditions: 10 μM, 72 hours
# Method: as §1, §2
# [14] = test system: H1650 (lung adenocarcinoma); conditions: 10 μM, 72 hours
# Method: as §1, §2
# [15] = test system: T24; conditions: 10 μM, 72 hours
# Method: as §1, §2, §3
# [16] = test system: HEK 293 (kidney); conditions: 10 μM, 72 hours
# Method: as §1, §2
# (§4) Each cell inhibitory experiment was repeated for 4 times, followed by calculation of the mean values thereof, which were shown in the following tables.
# [17] = test system: Cervical cancer; conditions: summary over cell lines, 10 μM, 72 hours
# Method: as §1, §2
# [18] = test system: PC-3 (prostate adenocarcinoma); conditions: 10 μM, 72 hours
# Method: as §1, §2, §3
# [19] = test system: normal cells
# Method: as §1, §2, §4
# [20] = test system: Prostate cancer; conditions: summary over cell lines, 10 μM, 72 hours
# Method: as §1, §2
# [21] = test system: Skin cancer; conditions: summary over cell lines, 10 μM, 72 hours
# Method: as §1, §2
# [22] = test system: HCT116-wt (colorectal carcinoma); conditions: 10 μM, 72 hours
# Method: as §1, §2, §3
# [23] = test system: MCF-7 (mammary gland, adenocarcinoma); conditions: 10 μM, 72 hours
# Method: as §1, §2
# [24] = test system: Bladder cancer; conditions: summary over cell lines, 10 μM, 72 hours
# Method: as §1, §2
# [25] = test system: Lung cancer; conditions: summary over cell lines, 10 μM, 72 hours
# Method: as §1, §2
# [26] = test system: LoVo (colorectal adenocarcinoma); conditions: 10 μM, 72 hours
# Method: as §1, §2, §3
# [27] = test system: Colorectal cancer; conditions: summary over cell lines, 10 μM, 72 hours
# Method: as §1, §2
# [28] = test system: Gastric cancer; conditions: summary over cell lines, 10 μM, 72 hours
# Method: as §1, §2
# [29] = test system: 786-O (renal adenocarcinoma); conditions: 10 μM, 72 hours
# Method: as §1, §2
# [30] = test system: various cancer cells; conditions: Table 18, FIG. 1
# Method: as §1, §2
# [31] = test system: HepG2 (hepatocellular carcinoma); conditions: 10 μM, 72 hours
# Method: as §1, §2, §3
smiles,measurement,setting,value
"CNCC[C@H](Oc1cccc2ccccc12)c1cccs1 [duloxetine HCl, Duloxetine hydrochloride]",Mean survival rate (%),[1]; mean of 4 experiments,31.5%
same,survival rate 0602-30 min,[1]; single experiment,25.7%
same,survival rate 0605-10 min,[1]; single experiment,16.2%
same,survival rate 0607-10 min,[1]; single experiment,17.1%
same,survival rate 0609-10 min,[1]; single experiment,67.0%
same,Survival rate (%),"[2]; Osteosarcoma (U2OS), summary table",35.09%
same,Mean survival rate (%),"[2]; U2OS, mean of 4 experiments",35.1%
same,survival rate 6-26-10 min,"[2]; U2OS, single experiment",26.6%
same,survival rate 6-28-10 min,"[2]; U2OS, single experiment",21.5%
same,survival rate 6-30-10 min,"[2]; U2OS, single experiment",56.6%
same,survival rate 7-3-10 min,"[2]; U2OS, single experiment",35.6%
same,Mean survival rate (%),[3]; mean of 4 experiments,33.8%
same,survival rate 0524-10 min,[3]; single experiment,27.7%
same,survival rate 0526-10 min,[3]; single experiment,29.9%
same,survival rate 0529-10 min,[3]; single experiment,25.4%
same,survival rate 0531-10 min,[3]; single experiment,52.1%
same,Mean survival rate (%),[4]; mean of 4 experiments,40.7%
same,survival rate 0524-10 min,[4]; single experiment,34.3%
same,survival rate 0526-10 min,[4]; single experiment,52.4%
same,survival rate 0529-10 min,[4]; single experiment,33.7%
same,survival rate 0531-10 min,[4]; single experiment,42.4%
same,Survival rate (%),[5],40.95%
same,Mean survival rate (%),[6]; mean of 4 experiments,23.5%
same,survival rate 0510-10 min,[6]; single experiment,25.0%
same,survival rate 0512-10 min,[6]; single experiment,15.9%
same,survival rate 0515-10 min,[6]; single experiment,37.3%
same,survival rate 0517-10 min,[6]; single experiment,15.8%
same,Survival rate (%),[7],57.2%
same,Mean (survival rate),[8]; mean of 3 experiments,48.1%
same,survival rate 0602-30 min,[8]; single experiment,43.9%
same,survival rate 0605-10 min,[8]; single experiment,31.3%
same,survival rate 0607-10 min,[8]; single experiment,69.0%
same,Mean survival rate (%),[9]; mean of 4 experiments,37.5%
same,survival rate 0524-10 min,[9]; single experiment,32.8%
same,survival rate 0526-10 min,[9]; single experiment,53.7%
same,survival rate 0529-10 min,[9]; single experiment,33.2%
same,survival rate 0531-10 min,[9]; single experiment,30.1%
same,Mean survival rate (%),[10]; mean of 4 experiments,54.0%
same,survival rate 3-4-30 min,[10]; single experiment,72.4%
same,survival rate 3-7-3-30 min,[10]; single experiment,62.1%
same,survival rate 3-7-4-30 min,[10]; single experiment,58.8%
same,survival rate 3-7-7-30 min,[10]; single experiment,22.7%
same,Mean (survival rate),[11]; mean of 4 experiments,59.7%
same,survival rate 0510-10 min,[11]; single experiment,59.5%
same,survival rate 0512-10 min,[11]; single experiment,75.3%
same,survival rate 0515-10 min,[11]; single experiment,46.0%
same,survival rate 0517-10 min,[11]; single experiment,57.9%
same,Survival rate (%),[12],51.5%
same,Mean (survival rate),[13]; mean of 4 experiments,34.9%
same,survival rate 7-3-30 min,[13]; single experiment,30.9%
same,survival rate 7-4-30 min,[13]; single experiment,41.9%
same,survival rate 7-7-30 min,[13]; single experiment,34.7%
same,survival rate -4-30 min,[13]; single experiment,31.9%
same,Mean (survival rate),[14]; mean of 4 experiments,36.3%
same,survival rate 1-10 min,[14]; single experiment,35.2%
same,survival rate 2-20 min,[14]; single experiment,36.9%
same,survival rate 3-20 min,[14]; single experiment,33.6%
same,survival rate 4-20 min,[14]; single experiment,39.4%
same,Mean (survival rate),[15]; mean of 4 experiments,85.2%
same,survival rate T24-1-30 min,[15]; single experiment,81.7%
same,survival rate T24-2-20 min,[15]; single experiment,90.6%
same,survival rate T24-3-20 min,[15]; single experiment,71.4%
same,survival rate T24-4-20 min,[15]; single experiment,97.2%
same,Mean survival rate (%),"[16]; HEK 293 normal kidney cells, mean, single experiments not given",62.4%
same,Survival rate (%),"[16]; Kidney (HEK293 normal cells), summary table",62.44%
same,Survival rate (%),[17],36.76%
same,Mean survival rate (%),[18]; mean of 4 experiments,45.6%
same,survival rate PC-3-0524-10 min,[18]; single experiment,45.0%
same,survival rate PC-3-0526-10 min,[18]; single experiment,70.9%
same,survival rate PC-3-0529-10 min,[18]; single experiment,41.4%
same,survival rate PC-3-0531-10 min,[18]; single experiment,25.1%
same,cytotoxicity to the normal cells,[19]; normal cells,little or no cytotoxicity
same,selective effect between normal cells and tumor cells,[19]; normal cells versus tumor cells,selective effect
same,Survival rate (%),[20],59.23%
same,Survival rate (%),[21],39.79%
same,Mean survival rate (%),[22]; mean of 4 experiments,77.1%
same,survival rate 0602-30 min,[22]; single experiment,52.1%
same,survival rate 0605-10 min,[22]; single experiment,108.8%
same,survival rate 0607-10 min,[22]; single experiment,127.4%
same,survival rate 0609-10 min,[22]; single experiment,20.3%
same,Mean survival rate (%),[23]; mean of 4 experiments,31.2%
same,survival rate 0612-10 min,[23]; single experiment,29.0%
same,survival rate 0614-10 min,[23]; single experiment,37.3%
same,survival rate 0616-10 min,[23]; single experiment,30.0%
same,survival rate 0619-10 min,[23]; single experiment,28.5%
same,Survival rate (%),[24],67.2%
same,Survival rate (%),[25],36.87%
same,Mean survival rate (%),[26]; mean of 4 experiments,47.3%
same,survival rate 0616-10 min,[26]; single experiment,44.8%
same,survival rate 0619-10 min,[26]; single experiment,63.4%
same,survival rate 0621-10 min,[26]; single experiment,49.9%
same,survival rate 0623-10 min,[26]; single experiment,31.0%
same,Survival rate (%),[27],62.21%
same,Survival rate (%),[28],41.6%
same,Mean survival rate (%),"[29]; 786-O, mean of 4 experiments",67.3%
same,survival rate 0524-10 min,"[29]; 786-O, single experiment",60.4%
same,survival rate 0526-10 min,"[29]; 786-O, single experiment",89.7%
same,survival rate 0529-10 min,"[29]; 786-O, single experiment",49.0%
same,survival rate 0531-10 min,"[29]; 786-O, single experiment",70.1%
same,Survival rate (%),"[29]; Renal cancer (786-O), summary table",67.3%
same,inhibitory effect against various cancers,[30],significant inhibitory effect
same,Mean survival rate (%),[31]; mean of 4 experiments,34.0%
same,survival rate 0524-20 min,[31]; single experiment,14.8%
same,survival rate 0526-20 min,[31]; single experiment,44.7%
same,survival rate 0529-20 min,[31]; single experiment,37.7%
same,survival rate 0531-20 min,[31]; single experiment,38.9%
